In patent publication US8920851B2, “Treatment of neurodegenerative diseases” (Velacor Therapeutics Pty Ltd, priority 2006, dated 2014):

Assays:
PHF-Tau = conditions: 100 μM, 3 hours
Experimental: In Vitro: 2×10^5 SY5Y or BE2M17 cells were plated to each well in a Falcon 6-well plate, either over coated or uncoated surfaces, and were allowed to attached overnight at 5% CO2/37° C. in complete growth medium (as described above). […] Cells were cultured over Falcon 6-well plates with surfaces coated either with 0.1% gelatin (Sigma, St Louis, Mo., USA), matrigel (cat #354234, BD, NSW, Australia) or 0.5 μg/ml fibronectin (Sigma, St Louis, Mo., USA).
Lysates preparation and Immunoblotting: Cells were washed twice in cold PBS and were lysed in 150 μl of cold RIPA buffer (containing 10% glycerol, 20 mM Tris, 137 mM NaCl, 0.1% SDS, 0.05% IGEPAL, 1% Triton X-100, 2 mM EDTA, 10% NaV, 2% NaF and 4× protease inhibitor), similarly, brain tissues were homogenised in dry ice using mortar and pestle, and lysed in 150 μl RIPA buffer. Samples were incubated on ice for 30 minutes, followed by centrifugation at 13000 rpm/ 10 minutes/ 4° C. Supernantant was collected and protein estimation was calculated for each sample by using BCA reagent (Sigma). Equal amounts of protein were loaded into each lane of a 10% SDS-polyacrylamide gel. The proteins were transferred onto PVDF (Millipore) membranes and were blocked with 5% skim milk blotto for 2 hours. After blocking the membrane, primary antibodies: either anti-human PHF-Tau (AT100 at 1:200, AT180 at 1:1000, and AT270 at 1:2500) or anti-human Tau (HT-7 at 1:1000) were incubated overnight at 4° C. in 5% skim milk blotto. Prior to secondary antibody incubation, membranes were rinsed 3× followed by 3×5 minutes washed in Tris-Buffered Saline with 0.01% Tween at room temperature. Followed by 1 hour incubation of secondary antibody polyclonal goat anti-mouse (Dako, Denmark) coupled to horse radish peroxidase (HRP) at 1:10000 dilutions in 5% skim milk blotto/room temperature. Membranes were washed as described above and were detected by using Amersham ECL western blotting detection reagent (Amersham Bioscience, Buckinghamshire, UK). Membranes were stripped using 2% SDS/β-Mercaptoethanol stripping buffer and reprobed for tubulin (Promega) to confirm protein loading.

rabbit PP1 = conditions: 0.05 U PP1, 500 μM phospho-threonine peptide, 15 min at 37° C., 50 μM sodium selenate
Experimental: 1 mg of synthetic phosphopeptides K-R-pT-I-R-R (Upstate #12-219) and R-R-A-pS-V-A (Upstate #12-220) were dissolved in 1.10-1.285 ml of dH2O to prepare a 1 mM solution, then aliquoted and stored at −20° C. until use. 0.01-0.05 U of purified PP2A A-C dimer purified from human red blood cells, or 0.05 U of rabbit PP1 purified from skeletal muscle was mixed with 500 μM of phosphopeptide and incubated in the presence of various treatments as indicated at 37° C. on a heating block for 15 min. Each reaction was made up to a total volume of 25 μl with pNPP buffer (50 mM Tris-HCl, pH 7.0, 100 μM CaCl2). The enzyme reaction was terminated by adding 100 μl of malachite green solution (0.034% malachite green in 10 mM ammonium molybdate, 1 N HCl, 3.4% ethanol, 0.01% Tween-20). Malachite green forms a stable green complex in the presence of molybdate and orthophosphate, allowing the amount of inorganic phosphate present to be measured. Absorbance was read in duplicate for each sample at 590 nm.

[1] = BE2M17 cells on fibronectin, plastic (uncoated) and matrigel

## O=[Se](=O)(O)O [sodium selenate]
PHF-Tau; BE2M17 cells on fibronectin and matrigel
  PHF-Tau signal, clone AT100 (68 kDa): PHF-Tau signal appeared to be reduced
PHF-Tau; BE2M17 cells on fibronectin
  Tau expression, clone HT-7 (68, 64, 57 kDa): appeared to reduce Tau expression
PHF-Tau; [1]
  PHF-Tau signal, clone AT180 (71 and 67 kDa): weaker PHF-Tau signal
  PHF-Tau signal, clone AT270 (66 and 63 kDa): weaker PHF-Tau signal
PHF-Tau; BE2M17 cells on matrigel
  PHF-Tau signal, clone AT270, cells on matrigel: only a slight difference between selenate treated and non-treated cells
PHF-Tau; SY5Y cells on fibronectin
  anti-Tau signal, clone HT-7 (60 kDa): weaker signal for anti-Tau
PHF-Tau; SY5Y cells on gelatin and fibronectin
  PHF-Tau signal, clone AT270 (70 kDa): weaker PHF-Tau signal
Rabbit PP1
  phosphatase activity of PP1: did not affect the phosphatase activity of PP1
